Details of series [1]: method as in PMID 25283475. The conditions noted are these: value at the time of designing the experiment; 10 times higher than the current dose; cited from earlier work.
For another series, the system named is GSTπ1 gene. As to the kind of experiment: GSTπ1 mRNA expression in the ascending and descending colon (qPCR). In kind it is in vivo, pre-pubertal gilts. The following applies: for difference in GSTπ1 gene expression between groups C and E: p ≤ 0.05; for average expression of the GSTπ1 gene during the entire experiment (expression ratio vs control at start = 1.00): group E. The procedure: (§1) Group E gilts were given ZEN orally at a dose of 40 μg ZEN/kg BW (Table 1). At the time of designing the experiment, the above value was equivalent to the no-observed-adverse-effect level (NOAEL) stipulated in the EFSA guidelines, which is 10 times higher than the current dose. Animals from group C received a placebo. The experiment lasted 42 days. The ZEN dose was adjusted to the BW of group E animals. Zearalenone was administered in enteric-coated capsules to avoid problems with uneven food intake. On each day of the experiment, the mycotoxin was administered orally before the morning feeding. Feed was used as a vector. Group C gilts received a placebo, i.e., the same gastro-resistant capsules with the vector, but without ZEN. Zearalenone was dissolved in 500 μL of 96% C2H5OH (96% ethyl, SWW 2442-90, Polskie Odczynniki Chemiczne SA, Gliwice, Poland) to obtain the dose needed (adjusted to BW). The obtained solutions were stored at a temperature of 20 °C for 12 h. Pre-pubertal gilts were weighed once a week to adjust ZEN doses to the needs of each animal. Three gilts from each experiment group were killed on day 7 (1st week of exposure), 14 (2nd week of exposure), 21 (3rd week of exposure), 28 (4th week of exposure), 35 (5th week of exposure), and 42 (6th week of exposure). On each of the above dates, the animals were euthanized by intravenous administration of sodium pentobarbital (Fatro, Ozzano Emilia, BO, Italy). Tissue samples (approx. 1.0 cm × 1.5 cm) from the middle parts of both examined colon sections were collected immediately after cardiac arrest. Samples were washed with phosphate buffer and prepared for toxicological analyses and gene expression assessment. Laboratory analyses were conducted within one month after tissue sampling.
(§2) Colon tissue samples were collected immediately after cardiac arrest. According to the manufacturer’s instructions (Sigma-Aldrich, Taufkirchen, Germany), samples were stored in RNAlater solution.
(§3) According to the manufacturer’s protocol, total RNA was extracted from tissues preserved in RNAlater (ca. 20 mg per sample; […] in each group) using the Total RNA Mini kit (A&A Biotechnology, Gdynia, Poland). RNA samples were incubated in ribonuclease-free DNAse I (Roche Diagnostics, Mannheim, Germany) to prevent contamination with genomic DNA. Overall RNA quality and purity from all samples were assessed using a BioPhotometer (Eppendorf, Germany) and the results were used for cDNA synthesis using the RevertAid™ First Strand cDNA Synthesis Kit (Fermentas, Burlington, ON, Canada). According to the manufacturer’s protocol, the reaction was performed using a cDNA synthesis reaction mixture for each sample, which consisted of 1 µg of total RNA and 0.5 µg of oligo (dT)18 primers. The first synthesized cDNA chain was stored at −20 °C pending further analysis.
(§4) Real-time PCR primers for target mRNA were designed using the Primer-BLAST tool based on reference species (Table 4). Real-time PCR was performed on an ABI 7500 Real-Time PCR system (Applied Biosystems, Foster City, CA, USA) in single plex mode; further procedures were performed according to the manufacturer’s instructions. Each PCR reaction tube contained 10 μL of the FastStart SYBR Green Master ROX mix (Roche Diagnostics), 0.25–0.5 μM of each primer (forward and reverse; Table 4), and 1 μL of the previously synthesized cDNA as a template, supplemented with PCR-grade H2O to a final volume of 20 μL. […]

For series [2] the following is noted: cited from earlier work.
Series [3] is described as follows: Concentrations of ZEN, α-ZEL and β-ZEL in colon tissue (immunoaffinity extraction, LC-MS/MS). The format is in vivo, pre-pubertal gilts. The following applies: for difference in mean ZEN levels between ascending and descending colon / difference in ZEN concentration in the descending colon: p ≤ 0.01; for ZEN metabolites in the distal colon: gilts given 40 μg ZEN/kg BW orally daily, 42 days. As for the experimental part: as §1
Zearalenone, α-ZEL, and β-ZEL were extracted from tissue samples using immunoaffinity columns (Zearala-TestTM Zearalenone Testing System, G1012, VICAM, Watertown, MA, USA) according to the manufacturer’s instructions. The eluates were placed in a water bath at 50 °C and evaporated in nitrogen stream. Until chromatographic analysis, the dry residues were stored at −20 °C. The results were verified by mass spectrometry and the procedure was monitored using internal standards.
ZEN, α-ZEL, and β-ZEL tissue concentrations were determined using an Agilent 1260 liquid chromatograph (LC) and an Agilent 6470 mass spectrometer (MS). The prepared samples were analyzed using an Agilent ZORBAX high-resolution HPLC column (Agilent Eclipse Plus C18; 2.1 × 50 mm, 1.8 µm) in a gradient elution program. The mobile phase consisted of 0.1% (v/v) formic acid dissolved in water (solvent A) and 0.1% (v/v) formic acid dissolved in acetonitrile (solvent B). The gradient program began with 20% B, which was increased to 100% B after 4.0 min and decreased to 20% B after 0.1 min.
Mycotoxins were quantified using external standards and were expressed in ppb (ng/mL). Calibration standards are fitted to the detector to eliminate detector influences that may reduce test sensitivity. Following the procedure described for the remaining samples, calibration standards were dissolved in the matrix samples (matrix-matched calibration). The material for the preparation of calibration standards was free from mycotoxins. The signal-to-noise ratio (3:1) was […] for ZEN, α-ZEL, and β-ZEL. The LOQ was defined as three times the LOD.
Electrospray ionization (ESI) mass spectrometry was performed in negative ion mode. MS/MS indices were optimized for all compounds. Using a six-level calibration curve, linearity was assessed.
The results were statistically processed at the Department of Discrete Mathematics and Theoretical Computer Science, Faculty of Mathematics and Computer Science of the University of Warmia and Mazury in Olsztyn. […]

A short description of series [4]: Clinical signs during the 42-day exposure. In kind it is in vivo, pre-pubertal gilts. The following applies: 40 μg ZEN/kg BW orally daily for 42 days. The procedure: as §1, with “On each of the above dates, the animals were euthanized by intravenous administration of sodium pentobarbital (Fatro, Ozzano Emilia, BO, Italy). Tissue samples (approx. 1.0 cm × 1.5 cm) from the middle parts of both examined colon sections were collected immediately after cardiac arrest. Samples were washed with phosphate buffer and prepared for toxicological analyses and gene expression assessment. Laboratory analyses were conducted within one month after tissue sampling.” left out

In a further series the test system is CYP1A1 gene. The series is described as follows: CYP1A1 mRNA expression in the ascending and descending colon (qPCR). The following applies: for mean CYP1A1 gene expression during the entire experiment (expression ratio vs control at start = 1.00): group E. Set-up: difference in CYP1A1 gene expression between groups C and E: scale not given here. In kind it is in vivo, pre-pubertal gilts. The procedure:
as §1, §2, §3
as §4, with “μL. The reaction was performed under the following standard thermal conditions: 95 °C for 10 min, followed by 45 cycles of 95 °C for 15 s and 60 °C for 1 min. Negative water controls (NTCs) were included to rule out cross-contamination. The quality of PCR products was verified by melting curve analysis, followed by agarose gel electrophoresis. The specificity of the designed primer pairs was confirmed by sequencing the obtained PCR products ([…]).” for “μL.”
In general terms: Real-time PCR tracks product formation cycle by cycle.

For the molecule `C[C@H]1CCCC(=O)CCC/C=C/c2cc(O)cc(O)c2C(=O)O1` [ZEN, Zearalenone], the “no-observed-adverse-effect level (NOAEL)” value in series [1] is given as 40 μg ZEN/kg BW. Also, the “difference in GSTπ1 gene expression between groups C and E” value in the series with GSTπ1 gene (ascending colon, week 1, higher in group C) is given as 0.35; in the series with GSTπ1 gene (descending colon, week 2, lower in group E), 0.27; in the series with GSTπ1 gene (descending colon, week 6, lower in group E), 0.34. Besides, the “average expression of the GSTπ1 gene during the entire experiment (expression ratio vs control at start = 1.00)” value was 0.39 in the series on GSTπ1 gene (ascending colon, group C 0.96) and 0.94 in the series on GSTπ1 gene (descending colon, group C 1.07). In addition, in series [2] (fats and alkaline aqueous solutions), the “solubility in fats and alkaline aqueous solutions” value was “soluble in fats and alkaline aqueous solutions”. Moreover, in series [2] (water), the solubility in water result is listed as “almost insoluble in water”. For the same molecule, the “ZEN strength in the ascending colon, on average” value in series [3] (40 μg ZEN/kg BW orally daily, average over each week of exposure (weeks 1-6)) is recorded as 2.09 ng ZEN/g. In addition, the “mean ZEN strength in the descending colon, on average” value in series [3] (40 μg ZEN/kg BW orally daily, first three weeks of exposure) worked out at 6.4 ng ZEN/g. Also, in series [3] (female, pig, descending colon tissue, po, 40 μg ZEN/kg BW orally daily, week 4), the concentration at 4 week of exposure worked out at 205 ng/g. Moreover, the concentration at 5 week of exposure in series [3] (female, pig, descending colon tissue, po, 40 μg ZEN/kg BW orally daily, week 5) amounted to 177 ng/g. In series [3] (female, pig, descending colon tissue, po, 40 μg ZEN/kg BW orally daily, week 6), the concentration at 6 week of exposure was 112 ng/g. The “difference in mean ZEN levels between ascending and descending colon” value in series [3] (week 4) came out at 200.33 ng ZEN/g; in series [3] (week 5) it was 173.61 ng ZEN/g; in series [3] (week 6), 109.55 ng ZEN/g. Further, the “difference in ZEN concentration in the descending colon” value in series [3] (week 4 vs week 1) is given as 200.31 ng ZEN/g; in series [3] (week 4 vs week 2), 198.21 ng ZEN/g; in series [3] (week 4 vs week 3), 197.44 ng ZEN/g; in series [3] (week 5 vs week 1), 172.31 ng ZEN/g; in series [3] (week 5 vs week 2) it was 170.21 ng ZEN/g. Moreover, the “clinical signs of zearalenone mycotoxicosis” value in series [4] is listed as “No clinical signs”. Moreover, the “difference in CYP1A1 gene expression between groups C and E” value with CYP1A1 gene (ascending colon, week 4, p ≤ 0.01) came out at 0.98; in the series with CYP1A1 gene (ascending colon, week 5, p ≤ 0.01) it was 1.16; in the series with CYP1A1 gene (descending colon, week 1, higher in group C, p ≤ 0.01), 0.41; with CYP1A1 gene (descending colon, week 2, higher in group C, p ≤ 0.05), 0.14; in the series with CYP1A1 gene (descending colon, week 3, higher in group E, p ≤ 0.05) it was 0.13; with CYP1A1 gene (descending colon, week 5, higher in group C, p ≤ 0.05), 0.24. For the same molecule, the “mean CYP1A1 gene expression during the entire experiment (expression ratio vs control at start = 1.00)” value turned out to be 0.73 with CYP1A1 gene (ascending colon, group C 0.99) and 0.43 with CYP1A1 gene (descending colon, group C 0.57).

`C[C@H]1CCC[C@H](O)CCC/C=C/c2cc(O)cc(O)c2C(=O)O1` [α-ZEL, α-zearalenol]: in series [3], the “ZEN metabolites in the distal colon” value was “no ZEN metabolites (α-ZEL and β-ZEL) were found”.

As to `C[C@H]1CCC[C@@H](O)CCC/C=C/c2cc(O)cc(O)c2C(=O)O1` [β-ZEL, β-zearalenol], in series [3], the “ZEN metabolites in the distal colon” value is “no ZEN metabolites (α-ZEL and β-ZEL) were found”.

The values above are taken from PMC12298104, “mRNA Expression of Two Colon Enzymes in Pre-Pubertal Gilts During a 42-Day Exposure to Zearalenone” (Toxins, 2025).
